PubChem BioAssay AID1963842 (Molecular Pharmacology Branch, DTP, NCI, 2024)

Test system: 677734-321-R-J1-PDC complex spheroid viability
Experiment: Anticancer human tumor 677734-321-R-J1-PDC patient-derived soft tissue sarcoma cell line growth inhibition [POLQ]
Conditions: for IC50: curve of first compound; for viability, T/C: stronger effect = lower value
Summary of the method: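 Three-cell-type spheroids modelling solid tumor plus stroma served as the readout system; POL inhibitors were tested individually and in combination, concentration ranges set by clinical Cmax where known.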

[1] = second compound 0.0316 µM, first compound 0.0316 µM
[2] = second compound 0.0316 µM, first compound 0.1 µM
[3] = second compound 0.0316 µM, first compound 0.316 µM
[4] = second compound 0.0316 µM, first compound 1 µM
[5] = second compound 0.0316 µM, first compound 3.16 µM
[6] = second compound 0.0316 µM, first compound 10 µM
[7] = second compound 0.1 µM, first compound 0.0316 µM
[8] = second compound 0.1 µM, first compound 0.1 µM
[9] = second compound 0.1 µM, first compound 0.316 µM
[10] = second compound 0.1 µM, first compound 1 µM
[11] = second compound 0.1 µM, first compound 3.16 µM
[12] = second compound 0.1 µM, first compound 10 µM
[13] = second compound 0.316 µM, first compound 0.0316 µM
[14] = second compound 0.316 µM, first compound 0.1 µM
[15] = second compound 0.316 µM, first compound 0.316 µM
[16] = second compound 0.316 µM, first compound 1 µM
[17] = second compound 0.316 µM, first compound 3.16 µM
[18] = second compound 0.316 µM, first compound 10 µM
[19] = second compound 1 µM, first compound 0.0316 µM
[20] = second compound 1 µM, first compound 0.1 µM
[21] = second compound 1 µM, first compound 0.316 µM
[22] = second compound 1 µM, first compound 1 µM
[23] = second compound 1 µM, first compound 3.16 µM
[24] = second compound 1 µM, first compound 10 µM
[25] = second compound 3.16 µM, first compound 0.0316 µM
[26] = second compound 3.16 µM, first compound 0.1 µM
[27] = second compound 3.16 µM, first compound 0.316 µM
[28] = second compound 3.16 µM, first compound 1 µM
[29] = second compound 3.16 µM, first compound 3.16 µM
[30] = second compound 3.16 µM, first compound 10 µM
[31] = second compound 10 µM, first compound 0.0316 µM
[32] = second compound 10 µM, first compound 0.1 µM
[33] = second compound 10 µM, first compound 0.316 µM
[34] = second compound 10 µM, first compound 1 µM
[35] = second compound 10 µM, first compound 3.16 µM
[36] = second compound 10 µM, first compound 10 µM
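Also: spheroids exposed to compounds for one week.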
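For viability, T/C in this document: 100% = vehicle DMSO treated spheroids.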

C=CC(=O)N1CCN(c2nc(=O)n(-c3c(C)ccnc3C(C)C)c3nc(-c4c(O)cccc4F)c(F)cc23)C(C)C1 (centres undefined) + Nc1ccc(C#CCN(C(=O)Cc2ncc(C(F)(F)F)cc2C(F)(F)F)c2ccc(F)cc2)nn1
IC50 (second compound 0.0316 µM): > 10 µM
IC50 (second compound 0.1 µM): > 10 µM
IC50 (second compound 0.316 µM): > 10 µM
IC50 (second compound 1 µM): > 10 µM
IC50 (second compound 3.16 µM): > 10 µM
IC50 (second compound 10 µM): 9.87 µM
viability, T/C [1]: 114%
viability, T/C [2]: 116%
viability, T/C [3]: 101%
viability, T/C [4]: 101%
viability, T/C [5]: 89.2%
viability, T/C [6]: 74.4%
viability, T/C [7]: 107%
viability, T/C [8]: 104%
viability, T/C [9]: 93.7%
viability, T/C [10]: 118%
viability, T/C [11]: 82.7%
viability, T/C [12]: 63.5%
viability, T/C [13]: 94.4%
viability, T/C [14]: 94.9%
viability, T/C [15]: 101%
viability, T/C [16]: 109%
viability, T/C [17]: 86.9%
viability, T/C [18]: 69.4%
viability, T/C [19]: 112%
viability, T/C [20]: 96.6%
viability, T/C [21]: 92.4%
viability, T/C [22]: 103%
viability, T/C [23]: 104%
viability, T/C [24]: 52.4%
viability, T/C [25]: 107%
viability, T/C [26]: 106%
viability, T/C [27]: 111%
viability, T/C [28]: 102%
viability, T/C [29]: 103%
viability, T/C [30]: 56.6%
viability, T/C [31]: 136%
viability, T/C [32]: 99.3%
viability, T/C [33]: 107%
viability, T/C [34]: 111%
viability, T/C [35]: 85.4%
viability, T/C [36]: 48.7%

CC(C)n1c(=O)n(C)c2cnc3cc(F)c(-c4ccc(OCCCN5CCCCC5)nc4)cc3c21 + Nc1ccc(C#CCN(C(=O)Cc2ncc(C(F)(F)F)cc2C(F)(F)F)c2ccc(F)cc2)nn1
IC50 (second compound 0.0316 µM): > 10 µM
IC50 (second compound 0.1 µM): > 10 µM
IC50 (second compound 0.316 µM): > 10 µM
IC50 (second compound 1 µM): > 10 µM
IC50 (second compound 3.16 µM): > 10 µM
IC50 (second compound 10 µM): > 10 µM
viability, T/C [1]: 94%
viability, T/C [2]: 106%
viability, T/C [3]: 103%
viability, T/C [4]: 97.1%
viability, T/C [5]: 87.7%
viability, T/C [6]: 101%
viability, T/C [7]: 99%
viability, T/C [8]: 102%
viability, T/C [9]: 92.2%
viability, T/C [10]: 81.5%
viability, T/C [11]: 72.6%
viability, T/C [12]: 88.8%
viability, T/C [13]: 90.2%
viability, T/C [14]: 92.7%
viability, T/C [15]: 98%
viability, T/C [16]: 112%
viability, T/C [17]: 84.9%
viability, T/C [18]: 94.2%
viability, T/C [19]: 109%
viability, T/C [20]: 85.9%
viability, T/C [21]: 93.6%
viability, T/C [22]: 80.5%
viability, T/C [23]: 84.9%
viability, T/C [24]: 96.3%
viability, T/C [25]: 112%
viability, T/C [26]: 102%
viability, T/C [27]: 95%
viability, T/C [28]: 105%
viability, T/C [29]: 83.3%
viability, T/C [30]: 103%
viability, T/C [31]: 85.3%
viability, T/C [32]: 96.3%
viability, T/C [33]: 93.3%
viability, T/C [34]: 79.5%
viability, T/C [35]: 93%
viability, T/C [36]: 89.2%
